Experimental data taken from US20260137653A1, “USE OF HEROMBOPAG OR PHARMACEUTICALLY ACCEPTABLE SALT THEREOF IN TREATMENT OF TUMOR CHEMOTHERAPY-INDUCED THROMBOCYTOPENIA” (JIANGSU HENGRUI PHARMACEUTICALS CO., LTD., priority 2022, published 2026).

Tested on: patients with chemotherapy-induced thrombocytopenia (platelet count <75×10^9/L, chemotherapy delay ≥1 week)
Assay: Randomized placebo-controlled clinical study of herombopag olamine tablets in thrombocytopenia induced by chemotherapy for malignant tumors (Example 1)
Type: in vivo, human
Experimental: Investigational drug: herombopag olamine tablets, 2.5 mg/tablet, manufactured and provided by Jiangsu Hengrui Pharmaceuticals Co., Ltd.
Control drug: herombopag olamine simulated tablets (placebo), 2.5 mg/tablet, identical in shape, color, weight, etc. to the herombopag olamine tablets, manufactured and provided by Jiangsu Hengrui Pharmaceuticals Co., Ltd.
Patients must meet all of the following inclusion criteria to be eligible for the study: • 1. Age between 18 years and 75 years (inclusive), regardless of gender. • 2. Pathologically or cytologically confirmed diagnosis of malignant tumors, including lung cancer (small cell or non-small cell), breast cancer, bladder cancer, etc. • 3. The subject is currently receiving a chemotherapy regimen on a 21-day cycle (excluding other chemotherapy cycle lengths) and requires the use of one or more chemotherapeutic drugs, such as: • Antimetabolites, including gemcitabine, etc.; • Platinum-based agents, including carboplatin, nedaplatin, cisplatin, lobaplatin, etc.; • Anthracyclines, including doxorubicin, daunorubicin, epirubicin, etc.; • Alkylating agents, including cyclophosphamide, ifosfamide, etc. • 4. The subject experiences a delay of ≥1 week in chemotherapy relative to the expected time due to thrombocytopenia, and the platelet count remains <75×10^9/L. • 5. Physical fitness status ECOG score of 0-1. • 6. The subject has an expected survival period of ≥12 weeks at the time of screening and is able to receive at least 2 or more cycles of the current chemotherapy regimen. • 7. Subjects of childbearing potential must agree to use reliable methods of contraception throughout the study (including male or female condoms, contraceptive foams, contraceptive gels, contraceptive films, contraceptive creams, contraceptive suppositories, abstinence, placement of intrauterine devices, etc.). Female subjects who have undergone a hysterectomy, bilateral salpingectomy, or bilateral tubal ligation or have been postmenopausal for more than 1 year and male subjects who have undergone a bilateral vasectomy or ligation are excluded. • 8. The subject is willing to participate in the study, can provide written informed consent, and has good compliance.
Patients meeting any one of the following criteria are excluded from the study: • 1. Screening or baseline platelet count of <30×10^9/L. • 2. Platelet count of <75×10^9/L prior to the first dose of chemotherapy. • 3. Hematopoietic diseases other than chemotherapy-induced thrombocytopenia (CIT), including but not limited to leukemia, primary immune thrombocytopenia, myeloproliferative diseases, multiple myeloma, and myelodysplastic syndrome. • 4. […]

CC1=NN(c2ccc3c(c2)CCCC3)C(=O)/C1=N\Nc1cccc(-c2ccc(C(=O)O)o2)c1O [herombopag olamine tablets, herombopag]
OR value for achieving the primary study endpoint, investigational group vs placebo group (95% CI 2.82-38.65, p=0.0001): 10.44 | proportion of subjects in which the drug is therapeutically effective (patients achieving the primary study endpoint) (investigational group n=28 (17/28), starting dose 7.5 mg once daily oral, two consecutive 21-day chemotherapy cycles, 95% CI 40.6-78.5, placebo 4/31 (12.9%)): 60.7% | incidence of adverse events (investigational group vs placebo group): comparable between the investigational group and the placebo group | grade 3 or higher grade treatment-related adverse events or treatment-related serious adverse events (investigational group, starting dose 7.5 mg once daily): No grade 3 or higher grade treatment-related adverse events or treatment-related serious adverse events were observed
